This note sets out measurements from US6303591A, “21-hydroxy-6,19-oxidoprogesterone (21OH-6OP) and its use as medicament for treating excess of glucocorticoids” (Applied Research Systems ARS Holding NV, priority 1997, dated 2001).

Entries after “also recorded” stand apart in the source; their conditions may differ.

In assay [1] the test system is Na^+ retention (sodium-excretion rate). As to the kind of experiment: Na^+ -retaining activity, adrenalectomized rats. The assay is classed as in vivo, rat. As to the method:
(§1) FIG. 3: Biological Properties of 21OH-6OP: A) Glycogen storage in vivo: 100 μg steroid/100 g body weight of male rats were injected as indicated in Example 1. Liver glycogen was purified and quantified with Krisman's reagent (17). Controls were injected with vehicle. Results are expressed as means±SEM (n=6). (*): different from controls P<0.02. B) TAT induction in vitro: rat hepatocytes were incubated for 5 h in HAM-F12 medium in the presence of 100 nM steroid and TAT activity was measured. Results are expressed as percentage of enzyme activity (means±SEM, n=4) over controls incubated in the presence of vehicle. (*) different from controls P<0.01. C) Sodium-retaining activity: adrenalectomized rats were treated with the indicated dose of steroids. Results are expressed as the ratio of sodium-excretion rates of steroid-injected animals to the excretion rates of rats injected with vehicle.
(§2) Bioassay : Liver glycogen deposition was measured on adrenalectoniized male Sprague-Dawley rats (180-220 g) as follows: steroids were dissolved in ethanol/propylene glycol/0.9% NaCl solution (3:3:34) and 100 μg steroid/l00 g body weight were injected i.m. the previous night. On the morning of the experiment this dose was reinjected intraperitoneally. Three hours later the rats were killed by cervical dislocation and livers were immediately removed. Glycogen purification and quantification were carried out according to Krisman's method (17). Na^+ -retaining properties were measured as described (5). Tyrosine aminotransferase (TAT) was induced in rat hepatocytes isolated by the procedure of Fry et al (18). TAT activity was determined according to Granner and Tomkins (19).

The target of assay [2] is T1, MR from rat kidney (kidney cytosol) (Rattus norvegicus, UniProt P22199).
T1 sequence (P22199 1-981): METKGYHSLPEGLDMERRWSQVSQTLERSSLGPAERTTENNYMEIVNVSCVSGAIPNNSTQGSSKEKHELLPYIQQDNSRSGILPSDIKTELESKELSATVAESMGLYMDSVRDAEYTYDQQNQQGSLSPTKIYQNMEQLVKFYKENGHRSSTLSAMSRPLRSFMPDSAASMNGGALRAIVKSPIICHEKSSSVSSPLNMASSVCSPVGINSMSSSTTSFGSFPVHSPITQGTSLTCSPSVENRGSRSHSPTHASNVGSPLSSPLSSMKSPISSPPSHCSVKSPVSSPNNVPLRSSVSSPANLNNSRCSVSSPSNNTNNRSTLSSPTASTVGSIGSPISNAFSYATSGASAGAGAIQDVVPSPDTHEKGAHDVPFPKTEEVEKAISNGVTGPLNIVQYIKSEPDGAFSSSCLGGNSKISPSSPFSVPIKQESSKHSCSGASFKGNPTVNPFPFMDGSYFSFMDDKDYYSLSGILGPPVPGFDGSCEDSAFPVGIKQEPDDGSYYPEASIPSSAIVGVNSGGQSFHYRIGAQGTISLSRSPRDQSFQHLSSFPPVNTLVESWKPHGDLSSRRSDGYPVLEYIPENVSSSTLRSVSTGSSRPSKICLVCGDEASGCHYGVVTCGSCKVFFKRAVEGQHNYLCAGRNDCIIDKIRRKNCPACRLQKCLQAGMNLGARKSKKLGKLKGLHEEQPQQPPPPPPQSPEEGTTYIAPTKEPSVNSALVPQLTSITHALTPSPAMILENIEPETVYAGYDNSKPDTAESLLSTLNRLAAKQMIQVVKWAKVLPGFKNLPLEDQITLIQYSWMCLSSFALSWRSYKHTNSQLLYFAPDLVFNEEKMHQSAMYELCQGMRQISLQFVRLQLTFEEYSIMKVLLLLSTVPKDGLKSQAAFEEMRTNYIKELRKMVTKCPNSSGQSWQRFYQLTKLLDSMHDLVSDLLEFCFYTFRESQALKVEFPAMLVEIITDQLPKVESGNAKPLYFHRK
As to the kind of experiment: competition with (^3 H)-ALDO for MR, rat kidney cytosol. The assay is classed as binding. As to the method:
Binding Assay: Adrenalectomized male Sprague-Dawley rats were bled to death by heart puncture. Cold 0.9% NaCI was injected profusely through the aorta until organs were completely blanched. Thymuses were used as a source of GR and kidneys as a source of MR. Homogenization and incubation conditions were performed as previously described, (14) and (15), respectively. Briefly, homogenates performed in cold TEGM buffer at pH 7.4 (0.1 M Tris-HCl, 10 mM EDTA, 10 mM α-mercaptoethanol, 20 mM Na2 MoO4, 25% glycerol, 0.1 mM PMSF, 2.0 TIU/ml aprotinin and 1 mg% Leupeptin) were centrifuged at 37,000 rev. for 30 min at 0° C. Supernatants from this centrifugation are referred to as "cytosol". […] (^3 H)-P4 binding to uterus PR was assayed on immature female rats according to Jordan et al (16).
(§3) Relative binding affinity (RBA) for partially purified CBG was determined by steroid competition for (^3 H)-B binding as described previously (14).
(§4) The displacement curve of 6,19-oxidoprogesterone is included for comparative purposes.

Assay [3] has as its system tyrosine aminotransferase (TAT) induction in rat hepatocytes. As to the kind of experiment: TAT induction in rat hepatocytes (agonism). The class given is cell-based. To be noted: FIGS. 3-B and 4 (hatched bars), no agonist added. As to the method: as §1
(§5) Hatched bars represent incubations performed in the presence of vehicle instead of agonist.
as §2
(§6) The basal TAT activity in hepatocytes, denominated control in the figure, was measured by adding vehicle (final concentration: 0.2% ethanol) to the culture. […] 2.5 μM 21OH-6OP inhibits 80% of TAT induction when concubated with B or DXM.

Assay [4] concerns the target T2, CBG partially purified from rat plasma (Rattus norvegicus, UniProt P31211).
T2 construct: CBG partially purified from rat plasma; from tissue; host or cells: rat plasma, partially purified
T2 sequence (P31211 23-396): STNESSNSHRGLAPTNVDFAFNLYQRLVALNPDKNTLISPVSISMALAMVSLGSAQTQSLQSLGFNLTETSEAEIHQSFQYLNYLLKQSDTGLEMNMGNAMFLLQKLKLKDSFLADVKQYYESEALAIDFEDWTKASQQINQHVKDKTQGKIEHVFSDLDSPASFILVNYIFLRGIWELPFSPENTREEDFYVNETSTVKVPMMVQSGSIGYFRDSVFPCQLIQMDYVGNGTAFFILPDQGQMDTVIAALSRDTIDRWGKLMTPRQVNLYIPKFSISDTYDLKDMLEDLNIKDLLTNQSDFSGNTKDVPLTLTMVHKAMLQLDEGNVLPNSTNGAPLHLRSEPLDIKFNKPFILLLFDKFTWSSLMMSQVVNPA
As to the kind of experiment: displacement of (^3 H)-B binding to partially purified CBG. As to the method:
as §3, §4

For assay [5], the system named is TAT induction in hepatocytes (GR). As to the kind of experiment: antagonism of TAT induction by DXM or B in hepatocytes. The assay is classed as cell-based, rat. The method, then:
as §5, §2, §6

Turning to `C[C@]12CC[C@H]3[C@@H](C[C@H]4OC[C@@]35CCC(=O)C=C45)[C@@H]1CC[C@@H]2C(=O)CO` [21OH-6OP, 21-hydroxy-6,19-oxidoprogesterone], the “Na^+ -retaining (MC) properties (in words)” value in assay [1] (FIG. 3-C) was “almost devoid of MC properties; also recorded: then loosing activity at still higher doses”. For the same compound, in assay [1] (maximum of parabolic dose-response, at high doses), the “maximum Na^+ retention” value is 40%. Also, the “competition with (^3 H)-ALDO for MR / interaction with MR” value in assay [2] (kidney cytosol, 5 nM (^3 H)-ALDO, 1.0 μM RU28362) is “unable to cross-react with uterus-PR or kidney-MR; also recorded: does not compete efficiently with (^3 H)-ALDO for MR, even when a thousand fold excess was added; also recorded: no ability to interact with MR nor PR”. Moreover, the “change of binding to MR by 21-hydroxyl introduction” value in assay [2] (vs 6,19-oxidopregnane skeleton, panel 2-C) is given as “does not improve the binding of the 6,19-oxidopregnane skeleton to MR”. The “TAT induction (in words)” value in assay [3] was “neither 6OP nor 21OH-6OP evoke these responses; also recorded: Neither 6OP nor 21OH-6OP facilitate TAT induction”. Further, the “increase of binding to CBG by 21-hydroxyl, relative to 6OP” value in assay [4] (21OH-6OP vs 6OP) was “hundred times”. Besides, in assay [4] (12 h, 2.5 μM, FIG. 2-B, read-out: block of CBG binding sites), the inhibition at 2.5 µM was approximately 60%. Besides, in assay [4] (partially purified CBG, (^3 H)-B, 12 h at 0° C., read-out: RBA for CBG (Kd)), the equilibrium dissociation constant (Kd) – broadly, a measure of binding affinity in units of concentration – was 1.27 µM. Besides, the “inhibition of TAT induction by B” value in assay [5] (2.5 μM steroid vs 100 nM B) came out at 80%. In addition, in assay [5] (2.5 μM steroid vs 100 nM DXM), the “inhibition of TAT induction by DXM” value is recorded as 80%. For the same compound, in assay [5] (2.5 μM steroid, 100 nM B), the “antagonism of TAT induction by B (in words)” value was “shows antagonist effect on TAT induction; also recorded: antagonize TAT induction by corticosterone and decamethasone; also recorded: significantly inhibited”. Moreover, in assay [5] (2.5 μM steroid, 100 nM DXM), the “antagonism of TAT induction by DXM (in words)” value is “shows antagonist effect on TAT induction; also recorded: antagonize TAT induction by corticosterone and decamethasone; also recorded: significantly inhibited”.
